# In patent EP4050002A1, “ANTI-PROLIFERATIVE AGENTS” (First Health Pharmaceuticals B.V., priority 2021, dated 2022):
# Where two headings read alike, the source gives them in different places.
# Key:
# [1] = Systemic and organ toxicity; type: in vivo, mice
# Description: […] For blood withdrawal, mice were anesthetized using gaseous anesthesia and 0.2 to 0.3 ml of blood samples were collected in Li-Heparin containing tubes at the time points above indicated, stored on ice, centrifuged within 15 minutes to separate plasma at 1540 ref (5000 rpm) at 4°C for 10 minutes; plasma was separated and transferred to new tubes.
# At study closure, animals were sacrificed and tumor and tissues removed for further studies of distribution and morphology. Mice from the efficacy study were anesthetized using gaseous anesthesia and blood samples collected in Li-Heparin containing tubes by intracardiac puncture, stored on ice, centrifuged within 15 minutes to separate plasma at 1540 ref (5000 rpm), at 4°C for 10 minutes; plasma was separated and transferred to new tubes. After blood collection, tissues for bio-analyses were separated, washed in PBS, dried and frozen at -80±10°C until homogenization.
# Tissues for histological analyses were washed in PBS and paraffin embedded soon after separation. Dehydration and Haematoxylin and Eosin (H&E) staining was performed on 5 µm thick sections followed by microscopic examination with Nikon Ni-e microscope (Nikon Instruments, Calenzano, Italy).
# [2] = Dose estimation by allometric relationship (PAD, HED); conditions: mouse models
# Source text: Based on pharmacokinetic studies and efficacy in vivo, it is possible to estimate a dosage in humans by allometric relationship (USFDA. Guidance for Industry: Estimating the Maximum Safe Starting Dose in Adult Healthy Volunteer. Rockville, MD: US Food and Drug Administration; 2005). […] The human equivalent dose (HED) can be estimated according with the FDA guidelines by means of the following formula: HED = animal dose × (((animal weight)/(human weight)))^((1−0.67)) [formula]
# Based on PAD in mouse models, the HED can be estimated as 1.8 mg/(Kg·day) considering a mouse average weight of 30 g and an adult human body weight of 60 Kg.
# [3] = Kinetic solubility (turbidimetry); type: physicochemical; conditions: for Absorbance at 620nm: PBS pH 7.4, 37°C, 2 h
# Description: Kinetic solubility was assessed in phosphate buffered saline at pH 7.4 according to the turbidimetry method. Turbidity (precipitation) was measured by absorbance at 620 nm following incubation at 37°C for 2 h. Stock solution of compounds in DMSO were prepared to produce the desired final range of concentrations, then these were added to the buffer to obtain the final test compound concentrations (1 µM, 3 µM, 10 µM, 30 µM, 100 µM), with a final DMSO concentration 1%). Solubility was estimated from the concentration of tested compound that produced a significant increase in absorbance (≥ 0.003 OD at 620 nm) above vehicle control (1% DMSO in water). Miconazole, Reserpine and Propranolol were used as controls.
# [4] = Plasma protein binding (rapid equilibrium dialysis); type: in vitro ADME; conditions: for fraction unbound at 5 h, 10 µM: read-out: % Bound in Plasma ± SD (converted); for recovery at 5 h, 10 µM: read-out: % Recovery ± SD
# Description: In vitro evaluation of test compounds for protein binding in plasma was performed using the rapid equilibrium dialysis method. Ready to use PBS, 9.07-10.00 g, (Sigma Aldrich, catalogue code P3813) was dissolved in 1l of MilliQ water and pH was adjusted to 7.4. 10 mM stock of the test compound was prepared in DMSO. 1 mM solution was prepared by diluting 10 mM stock in methanol. 10 µM working stock was prepared in plasma by spiking 3 µl of 1 mM solution into 297 µl of plasma. An aliquot of 200 µl of plasma containing test compound was spiked into donor well (red chamber) of the insert. 350 µl of PBS was spiked into receiver well (white chamber) of the insert. The plate was incubated at 37 °C in thermo-mixer at 400 rpm for 5 hours. The samples were matrix equilibrated with opposite matrix: 25 µl of plasma sample was matched with 25 µl of blank buffer (PBS) and 25 µl of buffer sample was matched with 25 µl of plasma.
# Matrix matched samples were precipitated with 200 µl of acetonitrile containing Telmisartan 100 ng/ml as internal standard. Buffer samples were of phosphate buffer saline pH 7.4 incubated for 5.5 h along with plasma samples. Blank samples were the ones matched with Phosphate buffer Saline pH 7.4 maintained at room temperature.
# Samples were vortexed at 1000 rpm for 5 min and centrifuged at 4000 rpm for 10 min. Supernatant was separated, diluted 2 fold with water and analyzed in LC-MS/MS.
# To control samples were processed immediately after the preparation of plasma working stock solutions. These samples serve as a measure for calculating the percentage recovery from plasma and buffer of test compounds. The percentage of plasma unbound (% Unbound) and bound (% Bound) fractions were calculated by the following equations: %Unbound = (1−((Tc−Fc))/(Tc))∗100 [formula] %Bound = 100−%Unbound [formula] %Recovery = 100∗(Fc + Tc)/(T0) [formula]
# TC = Compound concentration as determined by the calculated concentration on the plasma side of the membrane (donor well); FC = Free compound concentration as determined by the calculated concentration on the buffer side of the membrane (receiver well); T0 = Total compound concentration as determined before dialysis.
# The API400 MS and Agilent 1260 Multi sampler LC were used, with 10 uL injection volumes. Typically, plasma protein binding is determined over ≥ 4 hours at 37°C. Under these conditions chemical and/or enzymatic degradation of compounds can occur. The determination of compound recovery is, therefore, of pivotal importance. A low % recovery can flag a variety of potential problems: • The compound is hydrolytically or metabolically unstable • The compound is highly bound to the rapid equilibrium dialysis device • The compound is poorly soluble
smiles,measurement,setting,value
CCCCc1cn(-c2ccc(-c3nnc(-c4ccccc4C(F)(F)F)o3)cc2)nn1 [Compound 5],"treatment related morphological changes in brain, liver, lung, spleen and kidney","[1]; 6 weeks of repeated treatment, I.P. 45mg/Kg every 48 hours",No treatment related morphological changes
same,systemic toxicities or altered behavior,"[1]; I.P. 10 mg/kg single administration, mice observed for 24 hours",no toxicities
same,systemic toxicities or altered behavior,"[1]; I.P. 45 mg/kg double administration, mice observed for 48 hours",no toxicities
same,systemic toxicities or altered behavior,"[1]; I.P. 45 mg/kg every 48 hours, 6 weeks, including 1 week follow up",no toxicities
same,systemic toxicities or altered behavior,"[1]; I.P. 45 mg/kg single administration, mice observed for 24 hours",no toxicities
same,systemic toxicities or altered behavior,"[1]; I.T. 0.08 mg/kg single administration, mice observed for 24 hours",no toxicities
same,systemic toxicities or altered behavior,"[1]; I.V. 1 mg/kg single administration, mice observed for 24 hours",no toxicities
same,systemic toxicities or altered behavior,"[1]; P.O. 45 mg/kg single administration, mice observed for 24 hours",no toxicities
same,pharmacologically active dose (PAD),[2],22.5 mg·kg-1·day-1
same,solubility at 2 h,"[3]; 37 °C, aqueous buffer, kinetic from dmso stock, kinetic solubility, PBS pH 7.4, read-out: solubility",> 100 µM
same,Absorbance at 620nm,[3]; conc. 1 µM,0.037
same,Absorbance at 620nm,[3]; conc. 3 µM,0.037
same,Absorbance at 620nm,[3]; conc. 10 µM,0.037
same,Absorbance at 620nm,[3]; conc. 30 µM,0.037
same,Absorbance at 620nm,[3]; conc. 100 µM,0.038
same,"fraction unbound at 5 h, 10 µM",[4]; Human plasma,0.0022
same,"recovery at 5 h, 10 µM",[4]; Human plasma,79 ± 0.99%
same,"fraction unbound at 5 h, 10 µM",[4]; Mouse plasma,0.0003
same,"recovery at 5 h, 10 µM",[4]; Mouse plasma,83.7 ± 13.4%
same,"fraction unbound at 5 h, 10 µM",[4]; Rat plasma,0.0005
same,"recovery at 5 h, 10 µM",[4]; Rat plasma,63.4 ± 2.74%
